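Cells were grown in 96-well plates and exposed to each compound for 48 hours at five concentrations; endpoints were interpolated linearly between bracketing concentrations, or set to the highest concentration if not reached. GI50: concentration for 50% inhibition of growth.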 Active and inactive are the calls of the source. Cut-off read from the data, not from the text of the source: active = GI50 up to about 1.1 µM and inactive = higher.
Assays:
Assay in all cases: NCI-60 cell line screen, 48 h
CAKI-1 = system: CAKI-1
NCI-H460 = system: NCI-H460
SR = system: SR
RPMI-8226 = system: RPMI-8226
IGROV-1 = system: IGROV-1
NCI-H23 = system: NCI-H23
TK-10 = system: TK-10
ACHN = system: ACHN
KM12 = system: KM12
HOP-92 = system: HOP-92
MOLT-4 = system: MOLT-4
HL-60 = system: HL-60
OVCAR-5 = system: OVCAR-5
SW-620 = system: SW-620
RXF 393 = system: RXF 393
U-251 = system: U-251
A498 = system: A498

| Compound | GI50 (CAKI-1) | GI50 (NCI-H460) | GI50 (SR) | GI50 (RPMI-8226) | GI50 (IGROV-1) | GI50 (NCI-H23) | GI50 (TK-10) | GI50 (ACHN) | GI50 (KM12) | GI50 (HOP-92) | GI50 (MOLT-4) | GI50 (HL-60) | GI50 (OVCAR-5) | GI50 (SW-620) | GI50 (RXF 393) | GI50 (U-251) | GI50 (A498) |
| --- | --- | --- | --- | --- | --- | --- | --- | --- | --- | --- | --- | --- | --- | --- | --- | --- | --- |
| COC(=O)CCC(=O)N1Cc2cc(C)ccc2N(C(=O)CCC(=O)OC)Cc2cc(C)ccc21 | > 100 µM (inactive) | > 100 µM (inactive) | > 100 µM (inactive) | > 100 µM (inactive) | > 100 µM (inactive) | > 100 µM (inactive) | > 100 µM (inactive) | > 100 µM (inactive) | > 100 µM (inactive) | > 100 µM (inactive) | > 100 µM (inactive) | > 100 µM (inactive) | > 100 µM (inactive) | > 100 µM (inactive) | > 100 µM (inactive) | > 100 µM (inactive) |  |
| Fc1cccc(C2SCc3nc4ccccc4n32)c1 (centres undefined) | 25.7 µM (inactive) | 39.6 µM (inactive) | 35.6 µM (inactive) | 23.5 µM (inactive) | 39.6 µM (inactive) | 19.6 µM (inactive) | > 10 µM (inactive) | 24.4 µM (inactive) | 39.1 µM (inactive) | 12.5 µM (inactive) | 33.8 µM (inactive) | 11 µM (inactive) | 17.3 µM (inactive) | 54.8 µM (inactive) | > 10 µM (inactive) |  |  |
| Cc1ccc2sc3cc(=O)cc(C)c-3nc2c1 | 28.5 µM (inactive) | > 100 µM (inactive) | 28.8 µM (inactive) |  | > 100 µM (inactive) | 45.3 µM (inactive) | > 100 µM (inactive) | 29.2 µM (inactive) | 49.7 µM (inactive) | > 100 µM (inactive) | 15.7 µM (inactive) | 13.8 µM (inactive) | > 100 µM (inactive) | > 100 µM (inactive) |  | 32.7 µM (inactive) |  |
| Cc1[nH]c2ccccc2c1/C=C/c1c(C)[nH]c2ccccc12 | > 100 µM (inactive) | > 100 µM (inactive) |  | > 100 µM (inactive) | > 100 µM (inactive) | > 100 µM (inactive) | > 100 µM (inactive) | > 100 µM (inactive) | > 100 µM (inactive) |  | > 100 µM (inactive) | > 100 µM (inactive) | > 100 µM (inactive) | > 100 µM (inactive) | > 100 µM (inactive) | > 100 µM (inactive) | > 100 µM (inactive) |
| CCOC(=O)C(C)Sc1nnc(COc2ccc(Cl)cc2)n1-c1ccccc1 (centres undefined) | 16.2 µM (inactive) | 17.7 µM (inactive) |  | 19.1 µM (inactive) | 26.8 µM (inactive) | 20.1 µM (inactive) | 27.5 µM (inactive) | 17.5 µM (inactive) | 21 µM (inactive) | 20.8 µM (inactive) |  | 18.5 µM (inactive) | 26.6 µM (inactive) | 14.2 µM (inactive) | 22.9 µM (inactive) | 19.5 µM (inactive) |  |
| O=Cc1ccc2c(c1I)OCO2 | > 100 µM (inactive) | > 100 µM (inactive) | > 100 µM (inactive) | > 100 µM (inactive) | > 100 µM (inactive) | > 100 µM (inactive) | > 100 µM (inactive) | > 100 µM (inactive) | > 100 µM (inactive) |  | > 100 µM (inactive) | > 100 µM (inactive) | > 100 µM (inactive) | > 100 µM (inactive) |  | > 100 µM (inactive) | > 100 µM (inactive) |
| Cc1cc(Cl)ccc1C1OC(=O)c2c1ccc1ccccc21 (centres undefined) | > 100 µM (inactive) | > 100 µM (inactive) |  | > 100 µM (inactive) | > 100 µM (inactive) | > 100 µM (inactive) | > 100 µM (inactive) | > 100 µM (inactive) | > 100 µM (inactive) | > 100 µM (inactive) | > 100 µM (inactive) | > 100 µM (inactive) | > 100 µM (inactive) | > 100 µM (inactive) |  | > 100 µM (inactive) | > 100 µM (inactive) |
| Cc1ccc(S(=O)(=O)N/N=C/C(C)C)cc1 | > 100 µM (inactive) | > 100 µM (inactive) |  | > 100 µM (inactive) | > 100 µM (inactive) | > 100 µM (inactive) | > 100 µM (inactive) | > 100 µM (inactive) | > 100 µM (inactive) | 24.9 µM (inactive) | > 100 µM (inactive) | > 100 µM (inactive) | > 100 µM (inactive) | > 100 µM (inactive) | > 100 µM (inactive) | > 100 µM (inactive) | > 100 µM (inactive) |
| Cc1cccc(-c2nc3c(C(=O)NCCN(C)C)cccc3[nH]2)c1 | 2.23 µM (inactive) | 0.369 µM (active) |  | 3.12 µM (inactive) | 0.83 µM (active) | 1.06 µM (active) | 1.37 µM (inactive) | 2.26 µM (inactive) | 0.944 µM (active) | 1.28 µM (inactive) | 0.406 µM (active) | 2.29 µM (inactive) | 1.88 µM (inactive) | 0.352 µM (active) | 1.19 µM (inactive) | 1.49 µM (inactive) | 1.54 µM (inactive) |
| COc1ccc(-c2cc(C(=O)Nc3cc(C(F)(F)F)cc(C(F)(F)F)c3)c3ccccc3n2)cc1 | 11.3 µM (inactive) | 5.42 µM (inactive) | 4.29 µM (inactive) | 6.27 µM (inactive) | 12.6 µM (inactive) | 5.9 µM (inactive) | 13.9 µM (inactive) | 12.5 µM (inactive) | 13.2 µM (inactive) |  | 14.2 µM (inactive) | 21.3 µM (inactive) | 24.7 µM (inactive) | 7.94 µM (inactive) | 5.12 µM (inactive) | 4.28 µM (inactive) | 15.1 µM (inactive) |
| Nc1c(-c2cn(Cc3ccccc3)c3ccccc23)[n+]([O-])c2ccccc2[n+]1[O-] | 16 µM (inactive) | 28.5 µM (inactive) |  | 24.6 µM (inactive) | 21.7 µM (inactive) | 22 µM (inactive) | 28.3 µM (inactive) | 15.5 µM (inactive) | 28.8 µM (inactive) | 8.79 µM (inactive) | 16.8 µM (inactive) | 9.46 µM (inactive) | 25.6 µM (inactive) | 51.4 µM (inactive) |  | 32.5 µM (inactive) | 18.4 µM (inactive) |
| CCOC(=O)Cn1c(=O)[nH]c(=O)c2[nH]cnc21 |  | > 100 µM (inactive) | > 100 µM (inactive) |  | > 100 µM (inactive) | > 100 µM (inactive) | > 100 µM (inactive) | > 100 µM (inactive) | > 100 µM (inactive) |  | > 100 µM (inactive) | > 100 µM (inactive) | > 100 µM (inactive) | > 100 µM (inactive) | > 100 µM (inactive) | > 100 µM (inactive) | > 100 µM (inactive) |
| C/C(=C\CC[C@]1(C)OC(C)(C)OC1CC/C(C)=C/CO[Si](c1ccccc1)(c1ccccc1)C(C)(C)C)CC/C=C/CO[Si](C)(C)C(C)(C)C (some centres undefined) | > 100 µM (inactive) | > 100 µM (inactive) |  | > 100 µM (inactive) | > 100 µM (inactive) | > 100 µM (inactive) | > 100 µM (inactive) | > 100 µM (inactive) | > 100 µM (inactive) | > 100 µM (inactive) | > 100 µM (inactive) | > 100 µM (inactive) | > 100 µM (inactive) | > 100 µM (inactive) | > 100 µM (inactive) | > 100 µM (inactive) | > 100 µM (inactive) |
| Cc1cc(Cl)ccc1NC(=O)C(=O)Cc1nc2ccccc2o1 | > 100 µM (inactive) | > 100 µM (inactive) |  | > 100 µM (inactive) | > 100 µM (inactive) | > 100 µM (inactive) | > 100 µM (inactive) | > 100 µM (inactive) | > 100 µM (inactive) | > 100 µM (inactive) | > 100 µM (inactive) | > 100 µM (inactive) | > 100 µM (inactive) | > 100 µM (inactive) | > 100 µM (inactive) | > 100 µM (inactive) | > 100 µM (inactive) |
| O=C1/C(=N\O)C2CCC1C2 (centres undefined) | > 100 µM (inactive) | > 100 µM (inactive) |  | > 100 µM (inactive) | > 100 µM (inactive) | > 100 µM (inactive) | > 100 µM (inactive) | > 100 µM (inactive) | > 100 µM (inactive) | > 100 µM (inactive) | > 100 µM (inactive) | > 100 µM (inactive) | > 100 µM (inactive) | > 100 µM (inactive) | > 100 µM (inactive) | > 100 µM (inactive) | > 100 µM (inactive) |
| c1cnc2c3[nH]cc4[nH]c5ccccc5c4c-3nc2c1 | 64.1 µM (inactive) | 35.6 µM (inactive) |  | 27.6 µM (inactive) | > 100 µM (inactive) | > 100 µM (inactive) | > 100 µM (inactive) | 61.4 µM (inactive) | 36.1 µM (inactive) | 16.9 µM (inactive) | 22.7 µM (inactive) | 76 µM (inactive) | > 100 µM (inactive) | 55.2 µM (inactive) | 93.3 µM (inactive) | 75.3 µM (inactive) | > 100 µM (inactive) |
| COC(=O)CC(=O)OC1C[C@@H]2CCC3C(C)(C)CCC[C@]3(C)C23CC[C@@]1(C)C3 (some centres undefined) | 16.9 µM (inactive) | 19.8 µM (inactive) | > 100 µM (inactive) | 45.9 µM (inactive) | 16.9 µM (inactive) | 18.4 µM (inactive) | 19.1 µM (inactive) | 17.5 µM (inactive) | 18.5 µM (inactive) | 18 µM (inactive) | 53.8 µM (inactive) | > 100 µM (inactive) | 16.1 µM (inactive) | 18.2 µM (inactive) | 18.9 µM (inactive) | 17.4 µM (inactive) |  |
| c1ccc(P(=C2c3ccccc3-c3ccccc32)(c2ccccc2)c2ccccc2)cc1 | 6.41 µM (inactive) | 3.37 µM (inactive) |  |  | 6.7 µM (inactive) | 2.45 µM (inactive) | 7.64 µM (inactive) | 2.66 µM (inactive) | 2.24 µM (inactive) | 2.75 µM (inactive) |  | 1.8 µM (inactive) | 4.32 µM (inactive) | 3.37 µM (inactive) | 13 µM (inactive) | 3.05 µM (inactive) |  |

Reference: ChEMBL document CHEMBL1201862, “PubChem BioAssay data set” (2004)
